Reference: EP0808325B1, “[…] […] SERIES FOR […] GABA RECEPTOR” (priority 1994, dated 1996)
Like-named read-outs stand apart in the source and are kept apart here.

How the values were obtained:
rats = experiment: Vogel test; type: in vivo; settings: i.c.v.
Excerpt: The Vogel test is based on the development of a conflict between a highly motivated behavior and an aversion. For this test, the strong motivation is thirst. The animal is water deprived for 12-16 hrs to produce the motivation to drink. During the training period the animals are exposed to the testing environment so they become accustomed to the drinking spout and minimize the fear of a novel environment. Following training, the animals are allowed access to water for 2 hrs. During this time, the animals will drink and eat their normal amount of water and food, compensating for the deprivation time. However, this schedule still produces a strong motivation to drink during the testing period.
Having been deprived of water for twelve to sixteen hours, an animal is placed in a test cage where it is allowed to drink freely for five minutes. This period is used to habituate the animal to the environment and the drinking spout Following the training period, animals have access to water and food in their home cage for 2 hrs. Food is available at all times. Twenty-four hours later, drug is administered to the animal intracerebroventricularly.
After an indicated delay started from the time of injection the animal is again placed in the test cage for ten minutes. A computer counts each time the animal licks, and after every twentieth lick administers a mild electric stimulus across the tongue and/or feet. The electrical stimulus consists of a 0.6 mA current with a duration of 100 msec. This procedure produces a state of conflict for the animal that is reduced by the administration of clinically used anxiolytic agents (i.e., Valium). For dose-response curves, separate groups of animals are injected with increasing doses of test drug and are tested at a predetermined time.

GR complex = experiment: modulation of [35S]TBPS binding in rat cerebral cortex P2 homogenate; design: species or system Sprague-Dawley rats; IMAX: unit not given here; settings: for IC50: concentration of compounds to inhibit 50% of control [35S]TBPS binding, 2 nM [35S]TBPS, 25°C, 90 minutes, no unit printed; for IMAX: maximum inhibition of [35S]TBPS binding, I* = Inactive
Procedure, shortened: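 Rat (male Sprague-Dawley) cortical P2 homogenate, 0.5 mg protein, in 50 mM Na/K phosphate pH 7.4, 200 mM NaCl, incubated 90 min at 25° C with 2 nM [35S]TBPS plus GABA and (+)bicuculline, compounds added in DMSO. Filter-bound radioactivity counted; nonspecific binding defined with […].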

[1] = system: metrazol induced convulsions; experiment: animal or person; type: in vivo, mice; settings: for % Protected: 10 mg/kg
maximal electroshock [2] = experiment: maximal electroshock test; type: in vivo, mice; settings: Mus musculus, ip, 20% hydroxypropyl-β-cyclodextrin in water
Excerpt: The anticonvulsant tests are similar to that described above. […]

mice [3] = experiment: light/dark transition test; type: in vivo, N.I.H. Swiss-Webster mice; settings: IP
Excerpt: The light/dark transition test (Crawley and Goodwin, Pharmacol. Biochem. Behav. 13:67-70 1980) is based on the observation that rodents naturally tend to explore novel environments, but open, brightly lit arenas are aversive to the rodents and inhibit exploratory behavior (Christmas and Maxwell, Neuropharmacol. 9:17-29 1970; File, J. Neurosci. Meth. 2:219-238 1980).
Male N.I.H. Swiss-Webster mice (Harlan, Harlan, Indianapolis, IN) weighing 15-20 g were housed four per cage in polyethylene cages with sawdust bedding. The colony room was environmentally controlled (22°C) with a 12 hr light/dark cycle (0600-1800 hr). Food and water were available ad libitum, except during testing. The experiments were run from 0700-1500 hr and groups were counterbalanced for time of day effects. Mice were only administered drug or vehicle once.
The method used was a modification of methods previously described (Wieland et al., Br. Res. 565:263-268 (1991)). The apparatus included two 2-compartment automated test chambers (Model RXYZCM16, Omnitech Electronics, Columbus, OH). The open compartment was connected to the enclosed compartment via a 7.5 x 7.5 cm passageway. The open compartment was brightly lit using a 200 W incandescent light bulb. The experimental room was kept dark. Interruptions of the infrared beams in either chamber were automatically recorded by being linked to a computer through a Digiscan Analyzer (Omnitech Electronics) and the data was analyzed using the Integrated Lab Animal Monitoring System (Omnitech Electronics).
N.I.H. Swiss-Webster mice were administered vehicle or test drug intraperitoneally (IP), 10 min later they were placed in the center of the lit compartment. The number of transitions between the lit and dark chambers, total activity in the lit chamber and the time spent in the lit chamber were measured during a 10 min test period.

mice [4] = experiment: elevated plus-maze; type: in vivo, N.I.H. Swiss-Webster mice
Procedure, shortened: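 Male Swiss-Webster mice (15-20 g), dosed once with drug or vehicle, were placed on an elevated plus-maze 10 min post-injection for 5 min. Open-arm entries and open-arm time recorded, each as a percentage of total arm entries or time; center time excluded.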

[5] = system: metrazol induced convulsions; settings: cited from earlier work
maximal electroshock [6] = settings: cited from earlier work
(+)bicuculline = settings: cited from earlier work
picrotoxin = settings: cited from earlier work
mice [7] = settings: Rotorod; data from Swinyard & Woodhead 1982; cited from earlier work
strychnine = strychnine administered i.v.; data from Worms et al. 1982; cited from earlier work

CC(O)C1CCC2C3CCC4CC(O)C(F)CC4(C)C3CCC12C (stereo not drawn) [2β-Fluoro-3α,20α-dihydroxy-5α-pregnane]
Vogel (% of control) (rats; g-CD, 20 ug): 264.9 % of control

CC(C)(O)[C@H]1CC[C@H]2[C@@H]3CC[C@H]4C[C@H](O)CC[C@]4(C)[C@H]3CC[C@]12C [3α,20-dihydroxy-20-methyl-5α-pregnane]
IC50 (GR complex): 176 nM
IMAX (GR complex): 40
Vogel (% of control) (rats; g-CD, 20 ug): 179.0 % of control

C[C@H](O)[C@H]1CC[C@H]2[C@@H]3CC[C@H]4C[C@H](O)CC[C@]4(C)[C@H]3CC[C@]12C [3α,20a(S)-dihydroxy-5α-pregnane, 3α,20α(S)-Dihydroxy-5α-pregnane]
IC50 (GR complex): 99 nM
IMAX (GR complex): 46
% Protected ([1]; IP, micro soln.): 30%
Vogel (% of control) (rats; b-CD, 10 ug): 193.0 % of control

CC(C)OC1CC2(C)C(CCC3C2CCC2(C)C(C(C)O)CCC32)CC1O (stereo not drawn) [3α,20α-Dihydroxy-2β-isopropoxy-5α-pregnane]
Vogel (% of control) (rats; g-CD, 10 ug): 169.0 % of control

C[C@H](O)[C@H]1CC[C@H]2[C@@H]3CC[C@@H]4C[C@H](O)CC[C@]4(C)[C@H]3CC[C@]12C [3α,20α-Dihydroxy-5β-pregnane]
Vogel (% of control) (rats; g-CD, 10 ug): 283.3 % of control

CCC[C@H](O)[C@H]1CC[C@H]2[C@@H]3CC[C@H]4C[C@H](O)CC[C@]4(C)[C@H]3CC[C@]12C [3α,20α-dihydroxy-21-ethyl-5α-pregnane]
IC50 (GR complex): 27 nM
IMAX (GR complex): 13
Vogel (% of control) (rats; g-CD, 20 ug): 225.8 % of control

CC[C@H](O)[C@H]1CC[C@H]2[C@@H]3CC[C@H]4C[C@H](O)CC[C@]4(C)[C@H]3CC[C@]12C [3α,20α-dihydroxy-21-methyl-5α-pregnane, 3α,20α-Dihydroxy-21-methyl-5α-pregnane]
IC50 (GR complex): 35 nM
IMAX (GR complex): 28
Vogel (% of control) (rats; g-CD, 10 ug): 157.9 % of control

C[C@@H](O)[C@H]1CC[C@H]2[C@@H]3CC[C@@H]4C[C@H](O)CC[C@]4(C)[C@H]3CC[C@]12C [3α,20β-Dihydroxy-5β-pregnane]
Vogel (% of control) (rats; g-CD, 20 ug): 267.3 % of control

C[C@]12CC[C@@H](O)C[C@@H]1CC[C@@H]1[C@@H]2CC[C@]2(C)[C@@H](C(=O)CO)CC[C@@H]12 [3α,21-dihydroxy-5α-pregnan-20-one, reference compound]
IC50 (GR complex): 76 nM
IMAX (GR complex): 100
% Protected ([1]; IP, 50% hpbcd, 10 minutes prior to metrazol (85 mg/kg)): 87.5%
ED50 ([1]; Mus musculus, metrazol s.c., steroid i.p., 20% hydroxypropyl-β-cyclodextrin in water): 8.1 mg/kg
ED50 (maximal electroshock [2]): 26.7 mg/kg

CC(=O)[C@H]1CC[C@H]2[C@@H]3CC[C@@H]4C[C@H](O)CC[C@]4(C)[C@H]3CC[C@]12C [3α-Hydroxy-5β-pregnan-20-one, reference compound]
activity (mice [3]; 10 & 20 mg/kg, compared to control groups): significant (p < 0.01) increases
number of transitions between the dark box and the light box (mice [3]; at doses tested, versus control (Dunnett's t-test)): significantly increased
entries into the open-arms (mice [4]; 5 mg/kg (p ≤ 0.05)): significant increases
entries into the open-arms (mice [4]; 10 mg/kg (p ≤ 0.01)): significant increases
time spent on the open-arms (mice [4]; 10 mg/kg (p ≤ 0.01)): significant increases

O=C1CN=C(c2ccccc2Cl)c2cc([N+](=O)[O-])ccc2N1 [Clonazepam]
ED50 MTZ ([5]; metrazol, data from Swinyard & Woodhead 1982, NP = no protection): 0.009 mg/kg
ED50 MES (maximal electroshock [6]; data from Swinyard & Woodhead 1982): 93 mg/kg
ED50 BIC ((+)bicuculline; bicuculline, data from Swinyard & Woodhead 1982, NP = no protection): 0.0086 mg/kg
ED50 PICRO (picrotoxin; picrotoxin, data from Swinyard & Woodhead 1982, NP = no protection): 0.043 mg/kg
ED50 RR (mice [7]): 0.184 mg/kg

CCC1(c2ccccc2)C(=O)NC(=O)NC1=O [Phenobarbital]
ED50 RR (mice [7]): 69 mg/kg

NC(=O)CCC/N=C(\c1ccc(Cl)cc1)c1cc(F)ccc1O [Progabide]
ED50 MTZ ([5]; metrazol administered i.v., data from Worms et al. 1982): 30 mg/kg
ED50 MES (maximal electroshock [6]; data from Worms et al. 1982): 75 mg/kg
ED50 BIC ((+)bicuculline; bicuculline administered i.v., data from Worms et al. 1982): 30 mg/kg
ED50 PICRO (picrotoxin; picrotoxin administered i.v., data from Worms et al. 1982): 105 mg/kg
ED50 STR (strychnine): 75 mg/kg

C#C[C@@]1(O)CC[C@@]2(C)[C@H](CC[C@@H]3[C@@H]2CC[C@]2(C)[C@@H](C(=O)COC(=O)CCC(=O)O)CC[C@@H]32)C1 [Sodium 3α,21-dihydroxy-3β-ethynyl-5β-pregnan-20-one 21-hemisuccinate]
IC50 (GR complex): 540 nM
IMAX (GR complex): 102
% Protected ([1]; mouse, in vivo, ip): 50%
% Control (mice [4]; PO, water, 10 mg/kg): 159%
soluble in water: > 20 mg/mL
